Measurements reported in patent publication US7186703B2, “Derivatives of branched-chain lipophilic molecules and uses thereof” (D-Pharm Ltd., priority 2000, dated 2007).
Where “and” joins values, the source holds several entries; their conditions need not be identical. Identical values can stand only once.

What was measured:
[1] = test system: Caco-2 colon cancer cell line; test: MTT cytotoxicity, Caco-2; assay type: cell-based, human; details: Caco-2, three days, read-out: EC50 (50% reduction in cell viability)
Method: (§1) The cytotoxic activity of various phospho-derivatives of branched-chain fatty acids (DP-BFAs) was assayed in vitro in cell cultures that include normal and malignant cell types. The following cell systems were used: • Primary fibroblasts (human) • Normal bone marrow (BM) cells (mouse) • Primary bronchial epithelial cells (human, from Clonetics, cat. no. CC-2541) • Caco-2—colon cancer cell line (human, ATTC, HTB-37) • C6 glioma cell line (rat, ATCC, CRL-2199) • Neuro2a—neuroblastoma cell line (mouse, ATCC, CCL-131) • SKBR-3—breast cancer cell line (human, ATTC, HTB-30) • HL60—myeloid leukemia cell line (human, ATCC, CCL-240) • U937—myeloid leukemia cell line (human)
(§2) Cells were seeded in a microtiter plate in MEM containing 2 mM L-glutamine, 100 units/ml penicillin, 100 ug/ml streptomycin and 10% FCS at 37° C. The cultured cells were incubated, during their linear growth phase in the absence (control group) or presence of various DP-BFAs as indicated. The final concentrations of the tested DP-BFAs ranged from 1.5 to 200 microMolars. At the end of the incubation period, which was five days for the bone marrow cells and three days for all the other cell lines, the cytotoxic effect of the added P-BFA on the cells was estimated by using the colorimetric MTT assay. The MTT assay (Mosmann (1983) J. Immunol Methods 65: 55–63) measures mitochondrial reductase activity and serves for quantitative assessment of cellular viability. Drug concentration that causes 50% reduction in cell viability in comparison to the control group, is defined as EC50. The EC50 values of the tested DP-BFA compounds were calculated from dose response curves established for each of the different assayed cell lines.
(§3) Each EC50 value is an average of EC50 values derived from 1–5 independent experiments.

C6 glioma cell line = test: MTT cytotoxicity, C6 glioma; assay type: cell-based, rat; details: three days, read-out: EC50 (50% reduction in cell viability)
Method: as §1, §2, §3

[2] = test system: Neuro2a neuroblastoma cell line; test: MTT cytotoxicity, Neuro2a; assay type: cell-based, mouse; details: three days, read-out: EC50 (50% reduction in cell viability)
Method: as §1, §2, §3

[3] = test system: SKBR-3 breast cancer cell line; test: MTT cytotoxicity, SKBR-3; assay type: cell-based, human; details: three days, read-out: EC50 (50% reduction in cell viability)
Method: as §1, §2, §3

[4] = test system: U937 myeloid leukemia cell line; test: MTT cytotoxicity, U937; assay type: cell-based, human; details: U937, three days, read-out: EC50 (50% reduction in cell viability)
Method: as §1, §2, §3

Primary fibroblasts = test: MTT cytotoxicity, normal primary fibroblasts; assay type: cell-based, human; details: three days, read-out: EC50 (50% reduction in cell viability)
Method: as §1, §2, §3

[5] = test system: Normal bone marrow (BM) cells; test: MTT cytotoxicity, normal bone marrow cells; assay type: cell-based, mouse; details: five days, read-out: EC50 (50% reduction in cell viability)
Method: as §1, §2, §3

[6] = test system: Primary bronchial epithelial cells; test: MTT cytotoxicity, normal primary epithelial cells; assay type: cell-based, human; details: Normal primary epithel, three days, read-out: EC50 (50% reduction in cell viability)
Method: as §1, §2, §3

[7] = test system: blood brain barrier (BBB); test: BBB permeabilization in rats, Evans blue extravasation into brain; assay type: in vivo, Sprague-Dawley rats; details: Table 6; for μg EB/g brain (at EC50): at EC50 (Mannitol at 25%)
Text: Permeabilization of the BBB by DP-BFA was investigated in rat model system by monitoring accumulation in the brain of two markers: a) Evans blue dye (EB), which rapidly binds in vivo with albumin (NW 70 kD) and is an indicator for paracellular transport; and b) Fluorescein sodium salt (F—Na), MW 376 D, which is transported via the cellular space, and enables monitoring transcellular transport. Upon BBB disruption the Evans blue-albumin complex irreversibly accumulates in the intercellular space of the brain. The much smaller tracer fluorescein may be transported intracellularly to occupy both inter and intracellular space in the brain.
Blood brain barrier permeabilization in Sprague-Dawley rats was induced by brief exposure to DP-BFA. The animals were anesthetized with Rampun-Imalgen and DP-BFA test compounds were administered via the external carotid artery retrograde to the brain (Smith, Q. R. Methods of study. In: Physiology and Pharmacology of the Blood-Brain Barrier. Ed. Bradbury M. W. B. Spinger-Verlag. Berlin-Heidelberg-NY; 1992: 24–52). The pterygo-palathina artery was ligated to avoid escape of infused solutions towards the external head vasculature. DP-BFA solutions were infused over a period of 30 seconds or half an hour, using a Harvard Apparatus Syringe Pump. Blood flow through carotid communis artery was interrupted only at the time of infusion.
All tested DP-BFA molecules were prepared from stock solutions in either water or ethanol by diluting 200–1000 fold into solution of isosmotic mannitol (5%) in Tromethamine buffer (Sigma) or PBS (pH 7.4)
The markers, Evans blue (EB, 25 mg/ml) and fluorescein (F—Na, 12.5 mg/ml), in 1 ml solution, were injected intravenously immediately following administration of the tested DP-BFA, or after a specific time interval if reversibility of action was investigated. Supportive i.v. infusion of F—Na (12.5 mg/ml–100 μl/min) was performed for 8 minutes. Brains were washed with saline solution (60 ml) 10 min after the intracarotid “flash”. Brain ipsilateral and contralateral hemispheres and tumors, where applicable, were homogenized separately with 50% trichloroacetic acid (TCA). The markers concentrations in the cortex and in tumors, where, applicable, were determined spectrofluorometrically (Uyama, O. et al., (1988) J. Cereb. Blood Flow Metab. 8, 282–284: Abraham et al., (1996) Neurosci. Lett. 208, 85–88). The markers content was calculated as μg marker per one-gram brain tissue. Standard error and Student's test for statistical significance were used.
The experiment was carried out on male Sprague-Dawley rats weighing 250–320 g. The procedure described above in Example 17 was followed.
The effect of the tested compounds on the BBB opening was evaluated by two parameters:
a) efficacy—The degree of BBB opening estimated in terms of accumulation of Evans Blue albumin (μg EB/g brain tissue); and
b) potency—measured in terms of EC50 and minimal effective concentration (MEC) values. EC50 is the concentration of a tested compound producing 50% of the maximal effect of Evans Blue extravasation.
The effect of various DP-BFAs on BBB permeability was tested in the model system of rat brains, as described above in Example 17. Efficacy, namely the level of the BBB opening was expressed as the amount of Evans blue accumulated in the brain (μg EB/g brain). Potency of the tested molecules was estimated by their calculated EC50 and minimal effective concentration (MEC) values.

[8] = test system: blood brain barrier (BBB); test: BBB permeability to EB-albumin and Fluorescein in normal rat brains; assay type: in vivo; details: compounds at EC50 (Mannitol 25%); for % EB/g brain: control 0.04 ± 0.01; for Brain fluorescein uptake (% of serum F-Na level): control 0.3 ± 0.08; for Ratio F-Na/EB (mean of individual ratios): control 9.5 ± 1.6
Text: The effect of various DP-BFAs on BBB permeabilization to molecules of different sizes was examined in vivo in the model system of normal rat brains.
The transport of two markers was followed: a) Evans blue bound to albumin (MW 70 kD) as an indicator for paracellular transport; and b) Fluorescein sodium salt (MW 376 D) that represents small size molecules.
The Evans blue dye (EB) and Fluorescein sodium salt (F—Na) were infused into the artery carotis externa over 30 seconds according to the protocol described above in Example 17. The test compounds were used at their EC50 concentrations. Control animals were treated with vehicle solution.
Evans blue extravasation is expressed as the percentage of the total amount of EB accumulated per one gram of brain tissue. The transport of fluorescein into the brain, which is dependent on the serum concentration of this molecule, is presented as percentage of the F—Na level in the serum.

[9] = test system: blood tumor barrier (BTB) of C6 glioma; test: BTB opening in C6 glioma-bearing rats, Evans blue accumulation in tumor; assay type: in vivo, Sprague Dawley rats; details: for Specificity Tumor/Non-tumor (T/NT): ratio of EB accumulated in tumor and non-tumor brain
Method: (§4) In order to study the ability of DP-BFA compounds to modulate blood tumor barrier (BTB), a model system of C6 glioma-bearing rats, was employed.
(§5) Sprague Dawley (SD) rats were inoculated with C6 gliosarcoma cells following the procedure described by Bartus et al. (Exp Neurol (1996); 142:14–28). A small burr-hole was made in the frontal scalp bone of the rat fixed in a stereotaxis apparatus. Using a Hamilton syringe, 10 μl or 5 μl of media, containing 2.5×10^5 C6 gliosarcoma cells were inoculated into the frontal cortex. Coordinates were 1 mm posterior of bregma, 2.5 mm—lateral, and 3 mm—depth. The needle remained in the place for 5 min. After removal of the needle, fascia and scalp were sutured. The rats were checked 6–8 days after inoculation, when tumors of sufficient size (20–60 mg) had developed. The tumor was weighed after F—Na visualization and dissection. Parts of the rats' brains were subject to histological examinations and monitored for Evans Blue and Fluorescein uptake into ipsilateral tumour tissue, peritumoural tissue and contralateral tissue.
(§6) The bilateral tumor model system of C6 glioma-bearing rats described in Example 23 above was employed for screening of various derivatives of DP-BFA for their ability to permeabilize the blood brain barrier (BBB) in comparison to their effect on the blood tumor barrier (BTB). The experimental procedure described in Example 23 was followed except that the tumor-bearing rats were further treated with DP-BFA. The tested compounds, at concentrations around their EC50 values, were unilaterally infused into the external carotis artery over 30 seconds as described in Example 17. Animals treated with vehicle only serve as a control group. Permeabilization effect was quantitated by measuring accumulation of albumin bound Evans blue dye in tumor (T) versus non-tumor (NT) tissues.
(§7) Specificity index is defined as the ratio between the levels of EB accumulated in tumor and those accumulated in non-tumor brain tissues (T/NT).

[10] = test system: blood brain barrier (BBB); test: BBB opening in C6 glioma-bearing rats, Evans blue accumulation in non-tumor brain; assay type: in vivo, Sprague Dawley rats; details: concentrations around EC50 (Mannitol 25%), unilateral 30 s infusion
Method: as §4, §5, §6, §7

[11] = test system: blood tumor barrier / blood brain barrier; test: Unilateral administration in rats with bilateral C6 gliomas, Evans blue staining of brain sections; assay type: in vivo, SD rats; details: 10 μM 3,12-DEG-HPO4Na; 40 μM 3,12-Na; 25% mannitol; unilateral infusion
Method: FIGS. 2A–C depict Evans blue accumulation in brain sections of rats bearing bilateral gliomas following unilateral administration of a compound as follows: 10 μM 3,12-DEG-HPO4Na (FIG. 2A), 40 μM 3,12-Na (FIG. 2B) or mannitol 25% (FIG. 2C).
Evans Blue and Fluoroscein penetration into gliomas tumors was examined following unilateral infusion into the external carotis artery of either 10 μM 3,12-DEG-HPO4Na (FIG. 2A), 40 μM 3,12-Na BFA (FIG. 2B) or 25% mannitol (FIG. 2C). The relevant compound was infused into rat brains at 9 to 12 days following inoculation of C6 glioma cells as described in Example 23.

Row | EC50 ([7]; rat brains, Evans blue extravasation, read-out: EQ50 (the source's name)) | SMILES | EC50 [1] | EC50 (C6 glioma cell line) | EC50 [2] | EC50 [3] | EC50 [4] | EC50 (Primary fibroblasts) | EC50 [5] | EC50 [6] | μg EB/g brain (at EC50) [7] | MEC (minimal effective concentration) ([7]; concentration giving 3 μg EB/g brain) | % EB/g brain [8] | Brain fluorescein uptake (% of serum F-Na level) [8] | Ratio F-Na/EB (mean of individual ratios) [8] | Ratio F-Na/EB (mean of individual ratios) ([8]; listed as mannitol) | BTB EB μg/g Tumor ([9]; concentrations around EC50 (Mannitol 25%), unilateral 30 s infusion) | Specificity Tumor/Non-tumor (T/NT) [9] | Specificity Tumor/Non-tumor (T/NT) ([9]; listed as mannitol) | BBB EB μg/g Non-tumor brain [10] | Evans Blue staining of tumor and non-tumor brain (FIG. 2, in words) [11]
1 | 54 ± 5 µM | CCCCCCCCCCCCC(CCC)OCCOCCOP(=O)([O-])[O-].[Na+].[Na+] (stereo not drawn) [3,12-(ether)-DEG-PO4Na2, 2(4-Hexadecanoxy)ethoxyethyl Disodium Phosphate] | 47 µM | 40 µM | 37 µM | 58 µM | 10 µM | 65 µM | 68 µM | > 200 µM | 26 μg EB/g brain and 26 ± 5.2 μg EB/g brain | 7.3 ± 1.4 µM | 4 ± 0.8% | 4.4 ± 0.9 % of the F—Na level in the ser | 1.1 and 1.1 ± 0.2 |  |  |  |  |  | 
2 |  | OC[C@@H](O)[C@@H](O)[C@H](O)[C@H](O)CO [Mannitol, mannitol, reference compound] |  |  |  |  |  |  |  |  | 10 ± 2 μg EB/g brain |  | 0.6 ± 0.21% | 2.4 ± 0.4 % of the F—Na level in the ser | 4.0 ± 0.5 | 4 | 12 ± 2 µg/g | 2.1 ± 0.5 | about twice | 7 ± 2 µg/g | equally permeabilized tumor and non-tumor brain tissues
